Test results from ChEMBL document CHEMBL3886365, “Substituted oxadiazole compounds” (2015).
pEC50: −log10 of the molar value.

Columns and labels:
[1] = biological target: Sphingosine 1-phosphate receptor 1 (Homo sapiens, UniProt P21453); assay: (§1) GTPgammaS Binding Assay: Compounds were loaded in a 384 Falcon v-bottom plate (0.5 ul/well in a 11 point, 3-fold dilution). Membranes prepared from S1P1/CHO cells or EDG3-Ga15-bla HEK293T cells were added to the compound plate (40 ul/well, final protein 3 ug/well) with MULTIDROP. [35S]GTP (1250 Ci/mmol, Perkin Elmer) was diluted in assay buffer: 20 mM HEPES, pH7.5, 10 mM MgCl2, 150 mM NaCl, 1 mM EGTA, 1 mM DTT, 10 uM GDP, 0.1% fatty acid free BSA, and 10 ug/ml Saponin to 0.4 nM. 40 ul of the [35S] GTP solution was added to the compound plate with a final concentration of 0.2 nM. The reaction was kept at room temperature for 45 min. At the end of incubation, all the mixtures in the compound plate were transferred to Millipore 384-well FB filter plates via the VELOCITY11 Vprep liquid handler. The filter plate was washed with water 4 times by using the manifold Embla plate washer and dried at 60° C. for 45 min. MicroScint 20 scintillation fluid (30 ul) was added to each well.; type: functional, cell membranes
Sphingosine 1-phosphate receptor 1, sequence (P21453 whole entry): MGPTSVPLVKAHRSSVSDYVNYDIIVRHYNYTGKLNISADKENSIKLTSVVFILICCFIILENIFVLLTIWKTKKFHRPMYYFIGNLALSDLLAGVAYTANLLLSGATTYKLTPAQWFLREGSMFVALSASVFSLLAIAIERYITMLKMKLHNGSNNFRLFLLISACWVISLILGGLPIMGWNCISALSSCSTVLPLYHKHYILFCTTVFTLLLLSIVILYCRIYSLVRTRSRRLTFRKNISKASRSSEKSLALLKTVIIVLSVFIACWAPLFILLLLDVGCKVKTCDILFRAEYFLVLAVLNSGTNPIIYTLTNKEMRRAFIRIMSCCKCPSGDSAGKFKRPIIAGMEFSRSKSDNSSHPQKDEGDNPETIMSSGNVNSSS

[2] = biological target: Sphingosine 1-phosphate receptor 3 (Homo sapiens, UniProt Q99500); assay: as §1; type: functional, cell membranes
Sphingosine 1-phosphate receptor 3, sequence (Q99500 whole entry): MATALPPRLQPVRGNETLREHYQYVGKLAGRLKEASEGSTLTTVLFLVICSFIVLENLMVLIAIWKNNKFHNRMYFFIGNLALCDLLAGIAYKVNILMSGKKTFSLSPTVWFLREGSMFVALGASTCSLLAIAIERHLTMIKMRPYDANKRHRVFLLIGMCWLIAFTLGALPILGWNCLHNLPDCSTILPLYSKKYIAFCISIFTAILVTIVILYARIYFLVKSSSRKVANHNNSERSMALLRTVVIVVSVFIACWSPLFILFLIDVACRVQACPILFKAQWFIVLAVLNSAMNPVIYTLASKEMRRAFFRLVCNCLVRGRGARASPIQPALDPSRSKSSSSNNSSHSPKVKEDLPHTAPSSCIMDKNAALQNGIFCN

FC(F)(F)Oc1ccc(-c2noc(CCC3(c4ccccc4)CCCCC3)n2)cc1
pEC50 [1]: 5.24
pEC50 [2]: < 4.21
